Experimental data as given in US20070093511A1, “Anhydrous Crystal Form of Valaciclovir Hydrochloride” (priority 2001, published 2007).
Counter-ions that a name gives are not always drawn.

What was measured:
[1] = compared with acyclovir; cited from earlier work
[2] = Water content by Karl Fischer titration; assay type: physicochemical; conditions: Example 11 analysis
Protocol: The water of hydration content is measured by the Karl Fischer method which is well known in the art and is described in the 1990 US Pharmacopoeia at pages 1619-1621, and the European Pharmacopoeia, second edition (1992) part 2, sixteenth fascicule at v. 3.5-6.1. Water content (by Karl Fisher titration): 0.61% w/w

[3] = Stability and hygroscopicity of the crystal form (stated, no method); assay type: physicochemical; conditions: stated as advantage
[4] = Thermogravimetric analysis (TGA); assay type: physicochemical; conditions: from 182-310° C., scan rate 10° C. per minute, associated with melting/decomposition
Protocol: Thermogravimetric analysis was carried out on a Perkin-Elmer Pyris-1 TGA system. Scan rate of 10° C. per minute. Sample size 3.757 mg. The TGA trace is provided at FIG. 6. Weight loss from 182-310° C.=42.97% w/w associated with melting/decomposition

| Structure (SMILES) | Bioavailability [1] | Water content (by Karl Fisher titration) [2] [% w/w] | Hygroscopicity [3] | Stability of crystal form [3] | Weight loss [4] [% w/w] |
| --- | --- | --- | --- | --- | --- |
| CC(C)[C@H](N)C(=O)OCCOCn1cnc2c(=O)[nH]c(N)nc21 [valaciclovir] | much improved bioavailability | – | – | – | – |
| CC(C)[C@H](N)C(=O)OCCOCn1cnc2c(=O)[nH]c(N)nc21 [Form 2 Valaciclovir Hydrochloride, valaciclovir hydrochloride] | – | 0.61 | essentially non-hygroscopic | stable | 42.97 |
